According to US10202368B2, “CXCR7 receptor modulators” (IDORSIA PHARMACEUTICALS LTD, priority 2014, dated 2019):

biological target: CXCR7 (Homo sapiens (Human), UniProt P25106); assay: PathHunter CHO-K1 CXCR7 β-arrestin assay (agonistic activity); type: cell-based; settings: β-arrestin recruitment in PathHunter CHO-K1 CXCR7 β-arrestin cells, 90 minutes at 37° C., geometric mean values
Summary of the method: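 The enzyme-fragment complementation format pairs ProLink-tagged CXCR7 with EA–β-arrestin 2 in CHO-K1 cells, seeded at 5000/well for 24 h and serum-starved in OPTIMEM 3–4 h. Compounds were added in HBSS/20 mM HEPES/0.2% BSA for 90 min at 37 °C, followed by 1 h detection at room temperature and chemiluminescence read-out. EC50 is the geometric mean of several measurements.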

CXCR7, sequence (P25106 whole entry, the tested form may be a part): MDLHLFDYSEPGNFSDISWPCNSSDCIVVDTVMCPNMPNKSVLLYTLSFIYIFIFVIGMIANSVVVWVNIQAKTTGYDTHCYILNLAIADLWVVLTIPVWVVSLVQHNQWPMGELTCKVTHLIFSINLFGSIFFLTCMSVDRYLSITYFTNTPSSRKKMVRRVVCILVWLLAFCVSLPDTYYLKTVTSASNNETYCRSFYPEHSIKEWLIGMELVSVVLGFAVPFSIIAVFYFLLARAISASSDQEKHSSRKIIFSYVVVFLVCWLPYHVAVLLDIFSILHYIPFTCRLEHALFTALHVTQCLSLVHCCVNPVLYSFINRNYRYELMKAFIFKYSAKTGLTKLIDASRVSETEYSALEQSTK
CXCR7, sequence (P32121 whole entry partner, the tested form may be a part): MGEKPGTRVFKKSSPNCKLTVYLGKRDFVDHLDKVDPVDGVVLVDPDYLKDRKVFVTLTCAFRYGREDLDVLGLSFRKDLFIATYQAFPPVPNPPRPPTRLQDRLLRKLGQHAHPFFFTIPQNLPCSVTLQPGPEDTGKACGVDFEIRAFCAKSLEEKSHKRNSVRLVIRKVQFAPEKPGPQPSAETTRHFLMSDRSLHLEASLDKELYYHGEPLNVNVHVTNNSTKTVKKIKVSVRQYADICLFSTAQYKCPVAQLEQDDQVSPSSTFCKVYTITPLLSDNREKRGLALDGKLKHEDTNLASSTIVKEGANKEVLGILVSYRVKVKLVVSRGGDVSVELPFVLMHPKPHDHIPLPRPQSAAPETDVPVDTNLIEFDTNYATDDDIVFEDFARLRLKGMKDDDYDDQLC

SMILES	EC50 [nM]
CC(C)NCCN(Cc1ccccc1C(F)(F)F)C(=O)CNc1cccc2c1OCCN(CC1CC1)C2 [Example 85, 2-(4-Cyclopropylmethyl-2,3,4,5-tetrahydro-benzo[f][1,4]oxazepin-9-ylamino)-N-(2-isopropylamino-ethyl)-N-(2-trifluoromethyl-benzyl)-acetamide]	3
CN(C)CCN(Cc1ncccc1Cl)C(=O)CNc1cccc2c1N(C)CCN(CC1CC1)C2=O [Example 45, N-(3-Chloro-pyridin-2-ylmethyl)-2-(4-cyclopropylmethyl-1-methyl-5-oxo-2,3,4,5-tetrahydro-1H-benzo[e][1,4]diazepin-9-ylamino)-N-(2-dimethylamino-ethyl)-acetamide]	50
CCN1CCOc2c(NCC(=O)N(CCN3CCCC3)Cc3ncccc3C(F)(F)F)cccc2C1=O [Example 57, 2-(4-Ethyl-5-oxo-2,3,4,5-tetrahydro-benzo[f][1,4]oxazepin-9-ylamino)-N-(2-pyrrolidin-1-yl-ethyl)-N-(3-trifluoromethyl-pyridin-2-ylmethyl)-acetamide]	60
CCN1CCOc2c(cccc2NCC(=O)N(CCN(C)C)Cc2ncccc2Cl)C1 [Example 4, N-(3-Chloro-pyridin-2-ylmethyl)-N-(2-dimethylamino-ethyl)-2-(4-ethyl-2,3,4,5-tetrahydro-benzo[f][1,4]oxazepin-9-ylamino)-acetamide]	24
CC(C)(C)NCCN(Cc1ccccc1C(F)(F)F)C(=O)CNc1cccc2c1OCCN(CC1CC1)C2 [Example 83, N-(2-tert-Butylamino-ethyl)-2-(4-cyclopropylmethyl-2,3,4,5-tetrahydro-benzo[f][1,4]oxazepin-9-ylamino)-N-(2-trifluoromethyl-benzyl)-acetamide]	3
CN(C)CCN(Cc1ccccc1C(F)(F)F)C(=O)CNc1cccc2c1C(=O)N(CC1CC1)CCO2 [Example 38, 2-(4-Cyclopropylmethyl-5-oxo-2,3,4,5-tetrahydro-benzo[f][1,4]oxazepin-6-ylamino)-N-(2-dimethylamino-ethyl)-N-(2-trifluoromethyl-benzyl)-acetamide]	4
CN1CCN(CC2CC2)Cc2cccc(NCC(=O)N(CCN3CCCC3)Cc3ncccc3C(F)(F)F)c21 [Example 51, 2-(4-Cyclopropylmethyl-1-methyl-2,3,4,5-tetrahydro-1H-benzo[e][1,4]diazepin-9-ylamino)-N-(2-pyrrolidin-1-yl-ethyl)-N-(3-trifluoromethyl-pyridin-2-ylmethyl)-acetamide]	1
CN(C)CCN(Cc1ccccc1C(F)(F)F)C(=O)CNc1cccc2c1CCN(CC1CC1)CC2 [Example 27, 2-(3-Cyclopropylmethyl-2,3,4,5-tetrahydro-1H-benzo[d]azepin-6-ylamino)-N-(2-dimethylamino-ethyl)-N-(2-trifluoromethyl-benzyl)-acetamide]	2
